# Data taken from patent US7888319B2, “Compositions and methods for promoting wound healing and tissue regeneration” (MUSC Foundation for Research Development, priority 2004, dated 2011).
# Ends that are not written are not given here.
# Tests used:
# [1] = tested on: Cx43 gap junction formation; test: Cx43 gap junction formation in cultured neonatal myocytes; type: cell-based, rat; details: 30 μM peptide, 5 days in culture, relative to non-active control peptide and PBS
# Method: Myocytes from neonatal rat hearts were grown until forming a near-confluent monolayer on a tissue culture dish according to standard protocols. The cultures were subsequently allowed to culture for a further 5 days in culture medium comprising (a) 30 μM ACT 1 peptide (SEQ ID NO:2), (b) 30 μM non-active control peptide (SEQ ID NO:55), or (c) phosphate buffered saline (PBS) containing no ACT peptide or control. Culture media with added peptides or vehicle control was changed every 24 hours during the experiment. […] This increase in Cx43 gap junction formation in response to ACT peptide is shared by a number of cell types expressing Cx43.
# Myocytes from neonatal rat hearts were grown until forming a near-confluent monolayer on a tissue culture dish according to standard protocols. The cultures were subsequently allowed to culture for a further 5 days culture medium comprising 30 μM ACT 1 peptide (SEQ ID NO:2), 30 μM non-active control peptide (SEQ ID NO:55), or phosphate buffered saline (PBS) containing no ACT peptide or control peptide. The non-active control peptide comprises a polypeptide with a carboxy terminus in which the ACT peptide sequence has been reversed. […]
# [2] = tested on: 8 mm wide circular excisional skin injuries; test: Large (8 mm) excisional skin injury in adult mice; type: in vivo, mouse
# Method: Anesthetized adult mice had 8 mm wide circular excisional skin injuries made by fine surgical scissors down to the underlying muscle in the dorsal mid line between the shoulder blades (i.e., as shown in (a) an (b). The boundary of the injury was demarcated by an 8 mm wide circular template cut in a plastic sheet. 100 μl of a solution of 30% pluronic gel containing either no (control) or dissolved ACT 1 peptide (SEQ ID NO:2) at a concentration of 100 μM was then applied to the excisional injuries. Control or ACT peptide containing gel was applied subsequently 24 hours after the initial application. No further applications of control and ACT peptide containing gel were made after the second application. […] Note that images of the same injury on the same animal are shown at the different time points during the healing time course. […] Skin biopsies of the entire wound site were taken from some of the mice 24 hours following the excisional injury in the experiment described in FIG. 6. Figures (a) and (b) show low magnification survey views of cross-sections from near the center of the wound of control and ACT peptide treated injuries respectively. The wound edge (marked by the small arrows), bounded by skin of normal histological appearance, can be seen in both cases. A black rectangle is placed over the images in (a) and (b) at the left hand wound edge. The histological structures within these two rectangles are shown at higher magnification in (c) and (d) for control and ACT peptide treated tissues, respectively. Of most interest is a “collar-like” tissue of aligned fibrous material (arrowed) projecting from basal parts of the injury to or toward the wound edge and exterior surface of injury. The aligned fibrous substrate has the appearance of being much more organized in the control injury (d) than in the ACT peptide treated injury (c). […] This is confirmed in (e) and (f) where regions of histological section within the black rectangles shown in (c) and (d) are respectively shown at higher magnification. The inflammatory cells studding the aligned fibrous substrate include mast cells, neutrophils and macrophages. These inflammatory cells occur at much higher density in the control injury than in the ACT peptide treated injury. […] At the end of the 14 day period in the experiment described in FIG. 6, skin biopsies of the entire excisional injury were taken and histological sections from these skin samples were H&E histochemically stained. Figures (a) and (b) show low magnification survey views of cross-sections from near the center of the injury of ACT peptide and control respectively. The wound edge (marked by the small arrows), bounded by skin of normal histological appearance, can be seen in both cases. A black rectangle is placed over the images in (a) and (b) near the center of each injury. The histological structures within these two rectangles are shown at higher magnification in (c) and (d) for the ACT peptide and control tissues respectively. It is evident that tissue within the ACT peptide treated injury locus has considerably more complexity. […] By comparison, re-epithelization of the injury surface is incomplete and there is no sign of regenerating hair follicles in the epithelium of the control injury (d). […] As with, the hair follicles this tissue complexity was regenerated by differentiation of stem cells. […]
sequence,measurement,setting,value
"RPRPDDLEI (not fully specified (N-terminus)) [ACT 1, carboxy-terminal 9 amino acids of human Cx43; amino terminus biotinylated in tests]",extent of Cx43 gap junction formation between myocytes,[1],greatly increased
same,"closure, inflammation, healing and scarring of injury","[2]; 100 μM in 30% pluronic gel, 100 μl, applied at 0 and 24 hours, 14 day time course, vs gel without peptide","closed faster, was less inflamed in appearance, healed faster and scarred less"
same,re-epithelization of the injured surface,"[2]; 100 μM, 14 days, H&E histology",re-epithelization of the injured surface is complete
same,regenerating hair follicles in the new epithelium,"[2]; 100 μM, 14 days, H&E histology",regenerating hair follicles can already be seen
same,restoration of tissue structural complexity beneath the reformed epithelium,"[2]; 100 μM, 14 days, H&E histology",considerable restoration of normal structural complexity
same,density of inflammatory cells studding the fibrous substrate at the wound edge,"[2]; 100 μM, skin biopsy 24 hours after injury, H&E histology",considerably lower density of inflammatory cells
